In ChEMBL document CHEMBL1130817, “Sulfonamide derivatives of benzylamine block cholesterol biosynthesis in HepG2 cells: a new type of potent squalene epoxidase inhibitors” (Bioorg Med Chem Lett, 1998) one finds IC50 and ED50 data, which are given here for 21 compounds.

By IC50 is commonly meant the concentration needed to halve the response being measured. Higher therefore signals lower potency. In general, ED50 refers to the dose that gives a 50% effect, or the effect in half of the subjects. Higher therefore signals weaker potency.

Chain of Squalene monooxygenase (Rattus norvegicus, UniProt P52020) (P52020 whole entry): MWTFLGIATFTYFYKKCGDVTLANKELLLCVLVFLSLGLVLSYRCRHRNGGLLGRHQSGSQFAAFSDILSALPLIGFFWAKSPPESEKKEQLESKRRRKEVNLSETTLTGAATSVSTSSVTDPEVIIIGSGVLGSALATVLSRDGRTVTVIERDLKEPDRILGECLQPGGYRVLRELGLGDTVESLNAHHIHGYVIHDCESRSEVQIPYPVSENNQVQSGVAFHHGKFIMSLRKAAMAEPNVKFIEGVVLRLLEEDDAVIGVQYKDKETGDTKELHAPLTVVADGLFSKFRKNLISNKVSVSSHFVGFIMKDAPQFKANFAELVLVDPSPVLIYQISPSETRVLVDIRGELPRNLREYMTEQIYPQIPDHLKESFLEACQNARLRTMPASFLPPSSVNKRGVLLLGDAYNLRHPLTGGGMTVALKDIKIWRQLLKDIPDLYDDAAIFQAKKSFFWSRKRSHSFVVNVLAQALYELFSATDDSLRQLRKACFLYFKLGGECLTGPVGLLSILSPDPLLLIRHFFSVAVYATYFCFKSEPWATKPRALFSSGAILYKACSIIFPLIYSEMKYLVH

In the first assay the target is Squalene monooxygenase (Homo sapiens, UniProt Q14534). Put plainly: In vitro inhibition of cholesterol biosynthesis in human HepG2 cells. The format is functional, cell-based.
Chain of Squalene monooxygenase (Homo sapiens, UniProt Q14534) (Q14534 whole entry): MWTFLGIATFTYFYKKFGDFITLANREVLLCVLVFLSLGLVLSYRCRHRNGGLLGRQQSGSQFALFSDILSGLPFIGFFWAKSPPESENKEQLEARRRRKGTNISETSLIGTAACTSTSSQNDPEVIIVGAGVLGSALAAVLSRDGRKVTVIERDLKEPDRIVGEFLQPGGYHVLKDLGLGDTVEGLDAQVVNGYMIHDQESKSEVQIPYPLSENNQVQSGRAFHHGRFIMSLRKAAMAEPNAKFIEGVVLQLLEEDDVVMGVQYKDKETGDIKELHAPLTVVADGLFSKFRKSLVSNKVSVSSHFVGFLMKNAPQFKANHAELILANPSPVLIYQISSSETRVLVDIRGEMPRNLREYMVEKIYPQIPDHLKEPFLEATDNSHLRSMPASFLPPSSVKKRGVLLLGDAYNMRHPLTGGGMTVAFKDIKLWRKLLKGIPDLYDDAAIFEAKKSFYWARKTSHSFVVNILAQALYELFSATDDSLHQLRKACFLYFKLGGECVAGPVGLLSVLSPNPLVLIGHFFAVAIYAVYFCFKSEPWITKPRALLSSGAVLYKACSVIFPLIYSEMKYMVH
`CCN(C/C=C/C#CC(C)(C)C)Cc1cccc(OCCCS(=O)(=O)c2cccs2)c1` displayed a concentration for half-maximal inhibition (IC50) of 290 nM.

Turning to `CCN(C/C=C/C#CC(C)(C)C)Cc1cccc(OCCN(C)S(=O)(=O)c2nccs2)c1`, the concentration for half-maximal inhibition (IC50) turned out to be 170 nM.

The compound `CCN(C/C=C/C#CC(C)(C)C)Cc1cccc(OCCN(C)S(=O)(=O)c2ccc(Br)s2)c1` returned a 50% inhibitory concentration (IC50) of 390 nM. This IC50 is about 2.3-fold higher than that of the compound before.

As for `CCN(C/C=C/C#CC(C)(C)C)Cc1cccc(OCCN(C)S(=O)(=O)c2cc(Br)cs2)c1`, the IC50 is 300 nM.

`CCN(C/C=C/C#CC(C)(C)C)Cc1cccc(OCCN(C)S(=O)(=O)c2cc(-c3ccsc3)cs2)c1`: half-maximal inhibition (IC50) required 90 nM.

Turning to `CCN(C/C=C/C#CC(C)(C)C)Cc1cccc(OCCCN(C)S(=O)(=O)c2cccs2)c1`, the IC50 came to 6400 nM.

In turn, `CCN(C/C=C/C#CC(C)(C)C)Cc1cccc(OCCN(C)S(=O)(=O)c2ccsc2)c1` gave a concentration for half-maximal inhibition (IC50) of 250 nM.

Turning to `CCN(C/C=C/C#CC(C)(C)C)Cc1cccc(OCCN(C)S(=O)(=O)c2ccc(F)cc2)c1`, the IC50 came out at 255 nM.

`CCN(C/C=C/C#CC(C)(C)C)Cc1cccc(OCCNS(=O)(=O)c2cccs2)c1` came in with an IC50 of 450 nM.

Take `CCN(C/C=C/C#CC(C)(C)C)Cc1cccc(OCCN(C2CC2)S(=O)(=O)c2cccs2)c1`: the IC50 turned out to be 230 nM. Against the preceding compound, the IC50 is about 2-fold lower.

The compound `CCN(C/C=C/C#CC(C)(C)C)Cc1cccc(OCCN(C)S(=O)(=O)c2ccc(-c3ccsc3)s2)c1` displayed an IC50 of 210 nM.

Compound `CCN(C/C=C/C#CC(C)(C)C)Cc1cccc(OCCN(C)S(=O)(=O)c2cccs2)c1` came in with an IC50 of 60 nM.

For the compound `CCN(C/C=C/C#CC(C)(C)C)Cc1cccc(OCCN(C)S(=O)(=O)c2cc3ccccc3s2)c1`, the 50% inhibitory concentration (IC50) turned out to be 1800 nM.

For `CCN(C/C=C/C#CC(C)(C)C)Cc1cccc(OCCN(C)S(=O)(=O)c2ccc(-c3cccs3)s2)c1`, the IC50 came to 10000 nM.

Take `CCN(C/C=C/C#CC(C)(C)C)Cc1cccc(OCCN(C)S(=O)(=O)Cc2cccs2)c1`: the half-inhibitory concentration (IC50) worked out at 200 nM.

The compound `CCN(C/C=C/C#CC(C)(C)C)Cc1cccc(OCCN(CC)S(=O)(=O)c2cccs2)c1` displayed an IC50 of 90 nM.

In the case of `CCN(C/C=C/C#CC(C)(C)C)Cc1cccc(OCCN(C)S(=O)(=O)c2cccnc2)c1`, the midpoint of inhibition, the IC50, lay at 150 nM. This IC50 is about 1.7-fold higher than that of the compound before.

As to `CCN(C/C=C/C#CC(C)(C)C)Cc1cccc(OCCN(C)S(=O)(=O)c2ccc(Br)cc2)c1`, the IC50 was determined as 330 nM.

Regarding `CCCN(CCOc1cccc(CN(CC)C/C=C/C#CC(C)(C)C)c1)S(=O)(=O)c1cccs1`, it took 170 nM to reach half-maximal inhibition (IC50).

`CCN(C/C=C/C#CC(C)(C)C)Cc1cccc(OCCN(C)S(=O)(=O)c2ccc(C#N)cc2)c1` yielded a concentration for half-maximal inhibition (IC50) of 200 nM. The IC50 values of the last two compounds are within 1.5-fold of each other.

The target in the next assay is Squalene monooxygenase (Rattus norvegicus) (UniProt P52020). The experiment in a line: Compound was evaluated in vivo for the inhibition of rat mammalian squalene epoxidase […]. It counts as organism-based.
Chain of Squalene monooxygenase (Rattus norvegicus) (P52020 whole entry, looked up): as the sequence (P52020 whole entry) above
As for `CCN(C/C=C/C#CC(C)(C)C)Cc1cccc(OCc2cc(-c3ccsc3)cs2)c1`, the ED50 stood at 2.5 mg/kg.

The target is the same in another assay. Put plainly: Compound was evaluated in vivo for the inhibition of rat squalene epoxidase […]; Inactive. The format is organism-based.
In turn, `CCN(C/C=C/C#CC(C)(C)C)Cc1cccc(OCCN(C)S(=O)(=O)c2cccs2)c1` came in with a median effective dose (ED50) of 40 mg/kg.

The next assay concerns the target Squalene monooxygenase (Rattus norvegicus, UniProt P52020). Put plainly: In vitro inhibition of rat liver squalene epoxidase […]. The format is cell-based.
With `CCN(C/C=C/C#CC(C)(C)C)Cc1cccc(OCCN(C)S(=O)(=O)c2cccs2)c1`, the IC50 was 6000 nM.
